# Measured values as given in patent US20200087625A1, “METHODS FOR ISOLATING, EXPANDING AND ADMINISTERING CANCER SPECIFIC CD8+ T CELLS” (priority 2017, published 2020).
# Tests used:
# 4T1-GLF cells = test: In vivo imaging (IVIS) of lung tumor signals, 4T1-GLF; design: species or system BALB/c mice; conditions: 200 μg i.p. day -1; early phase 3 h and 6 h, late phase days 7, 10, 14
# Procedure: (§1) FIGS. 25A-25F. Innate immune cells, NK cells and dendritic cells are activated following 1V270 therapy and contribute to anti-metastatic effects (A-C) Systemic administration of 1V270 activates dendritic cells and increases CD8^+ cell recruitment in the lung draini lymph node. (A) BALB/c mice (n=S/group) were treated with 1V270 on day −1 and then tumor cells were i.v. administered on day 0. Seven days later, mediastinal lymph node (mLN) cells were stained for dendritic cells (DC; CD45^+CD11c^+MHC classll^+). (B) DCs were further stained for CD80 and CD86. […] Tumor signals were quantified by IVIS. […] On the next day, lung cells were stained for NK markers (CD45^+[…] NKp46^+CD49^+) and analyzed by flow cytometry. […] Tumor signals were analyzed as described above. […]
# GFP and luciferase (GLF)-expressing tumor cells (2×10^4 of 4T1-GLF, 5×10^5 of B16-GLF, and […] of LLC-GLF) were i.v. injected into BALB/c mice for 4T1 models, BG-albino or wild-type C57BU6 for B16 melanoma or LLC models). […] Image data were acquired by 1 Ss exposure using the IVIS Spectrum and analyzed using the Living Image software, version 4.5.2 (Perkin Elmer, Waltham, Mass.). We confirmed that the tumor signals in the lungs at day 10 correlated with the number of lung metastasis determined on day 21, as well as the overall survival (Supplemental figures 10). […]
# NK cells and MDSC = test: Innate immune cell recruitment to the lungs (flow cytometry); assay type: in vivo, BALB/c mice; conditions: 1V270 day -1; vs vehicle
# Procedure: as §1, with “CD86. (C) The mLN cells were also stained for central memory CD8^+ T cells (CD3+CD8^+CD44^+CD62L^+), effector memory CD8^+ T cells (CD3+CD8^+CD44^+CD62L^+), and naive CD8^+ T cells (CD3+CD8^+CD44^−CD62L^−). Each dot indicates an individual mouse and horizontal and vertical bars indicate means±SEM.” for “CD86.”
# FIGS. 33A-33C. […] Next day, single cell suspensions derived from the lungs were stained for (A) NK cells (CD45^+CD3^−NKp46^+CD49^+), (B) M-MDSCs (CD45^+CD11b^+Ly6G^−Ly6^high) and (C) PMN-MDSCs (CD45^+CD11b^+Ly6G^+) were analyzed by flow cytometric assay. […]
# [1] = Serum cytokine analysis (Luminex) after systemic administration; assay type: in vivo, BALB/c mice; conditions: i.p. 185 nmol/injection; sera 2, 4, 6, 24 hours; 1V270 vs 1V136
# Procedure: FIG. 36. […] BALB/c mice (n=5) were i.p. administered IV270 (200 μg=185 nmol/injection) or […] (58 μg=185 nmol/injection) and sera were collected 2, 4, 6, and 24 hours following the administration. The levels of TNFα, IL-12, and IP-IO were measured by Luminex assay. *P<0.05, **P<0.01 by two way ANOVA using a Bonferroni post hoc test comparing treatment groups.
# The sera were collected from mice receiving […] of 1V136, 1V270 or vehicle 2, 4, 6, and 24 hours after i.p. administration (15). Cytokine levels in sera were determined by Luminex bead assays (MILLIPLEX™ MAP kit, Millip ore, Billerica, Mass.).
smiles,measurement,setting,value
CCCCCCCCC=CCCCCCCCC(=O)OCC(COP(=O)(O)OCCNC(=O)c1ccc(Cn2c(=O)[nH]c3c(N)nc(OCCOC)nc32)cc1)OC(=O)CCCCCCCC=CCCCCCCCC (stereo not shown) [1V270],lung tumor signals (IVIS),4T1-GLF cells,significantly suppressed the tumor signals
same,population of NK cells recruited to the lungs,NK cells and MDSC,Significantly increased populations
same,population of monocytic-MDSC recruited to the lungs,NK cells and MDSC,Significantly increased populations
same,"serum cytokine induction (TNFα, IL-12, IP-10)",[1],significantly lower levels of cytokine induction
